Reference: US10570129B2 (Zoetis Services LLC, priority 2015, dated 2020)

Key:
[1] = tested on: Haemonchus contortus L3; assay: microbe, parasite or virus in culture; assay type: cell-based; details: Haemonchus contortus, 96 h, read-out: HcL3 Minimal Effective Concentration (MEC)
[2] = tested on: D. immitis microfilariae; assay: Dirofilaria immitis, microfilariae (DiMF) in vitro motility assay; assay type: cell-based; details: Dirofilaria immitis, 72 h, read-out: DiMF minimally effective dose (MEC)

SMILES | minimal effective concentration [1] [µM] | minimal effective concentration [2] [µM]
O=C(NCc1ccnc(Cl)c1)n1c2c(c3cc(OC(F)(F)F)c(Br)cc31)CN(C/C=C/c1ccc(Cl)cc1)CC2 [Example 497, (E)-7-bromo-2-(3-(4-chlorophenyl)allyl)-N-((2-chloropyridin-4-yl)methyl)-8-(trifluoromethoxy)-1,2,3,4-tetrahydro-5H-pyrido[4,3-b]indole-5-carboxamide] | 1 | 5.7
O=C(NCc1ccnc(Cl)c1)n1c2c(c3cc(Br)ccc31)CN(C/C=C/c1ccc(Cl)c(F)c1)CC2 [Example 179, (E)-8-bromo-2-(3-(4-chloro-3-fluorophenyl)allyl)-N-((2-chloropyridin-4-yl)methyl)-1,2,3,4-tetrahydro-5H-pyrido[4,3-b]indole-5-carboxamide] | 0.5 | 75.8
N#Cc1ccc(/C=C/CN2CCc3c(c4ccc(Cl)cc4n3C(=O)NCc3ccnc(Cl)c3)C2)cc1 [Example 212, (E)-7-chloro-N-((2-chloropyridin-4-yl)methyl)-2-(3-(4-cyanophenyl)allyl)-1,2,3,4-tetrahydro-5H-pyrido[4,3-b]indole-5-carboxamide] | 1 | > 100
O=C(NCc1ccnc(Cl)c1)n1c2c(c3cc(Br)ccc31)CN(C/C=C/c1ccc(F)cc1F)CC2 [Example 181, (E)-8-bromo-N-((2-chloropyridin-4-yl)methyl)-2-(3-(2,4-difluorophenyl)allyl)-1,2,3,4-tetrahydro-5H-pyrido[4,3-b]indole-5-carboxamide] | 0.2 | 32.3
N#Cc1ccc2c(c1)c1c(n2C(=O)NCc2ccnc(Cl)c2)CCN(C/C=C/c2ccc(Br)cc2F)C1 [Example 73, (E)-2-(3-(4-bromo-2-fluorophenyl)allyl)-N-((2-chloropyridin-4-yl)methyl)-8-cyano-1,2,3,4-tetrahydro-5H-pyrido[4,3-b]indole-5-carboxamide] | 0.1 | > 100
O=C(NCc1ccnc(F)c1)n1c2c(c3cc(F)c(Cl)cc31)CN(C/C=C/c1cc(F)cc(F)c1)CC2 [Example 316, (E)-7-chloro-2-(3-(3,5-difluorophenyl)allyl)-8-fluoro-N-((2-fluoropyridin-4-yl)methyl)-1,2,3,4-tetrahydro-5H-pyrido[4,3-b]indole-5-carboxamide] | > 100 | 5.7
N#Cc1ccc2c(c1)c1c(n2C(=O)NCc2ccnc(F)c2)CCN(C/C=C/c2ccc(Br)c(F)c2F)C1 [Example 111, (E)-2-(3-(4-bromo-2,3-difluorophenyl)allyl)-8-cyano-N-((2-fluoropyridin-4-yl)methyl)-1,2,3,4-tetrahydro-5H-pyrido[4,3-b]indole-5-carboxamide] | 0.3 | > 100
N#Cc1ccc2c(c1)c1c(n2C(=O)NCc2ccnc(F)c2)CCN(C/C=C/c2cc(F)c(F)c(F)c2)C1 [Example 116, (E)-8-cyano-N-((2-fluoropyridin-4-yl)methyl)-2-(3-(3,4,5-trifluorophenyl)allyl)-1,2,3,4-tetrahydro-5H-pyrido[4,3-b]indole-5-carboxamide] | 0.1 | 1.3
N#Cc1ccc2c(c1)c1c(n2C(=O)NCc2ccnc(Cl)c2)CCN(C/C=C/c2ccc(Cl)c(F)c2)C1 [Example 72, (E)-2-(3-(4-chloro-3-fluorophenyl)allyl)-N-((2-chloropyridin-4-yl)methyl)-8-cyano-1,2,3,4-tetrahydro-5H-pyrido[4,3-b]indole-5-carboxamide] | 0.2 | 5.1
O=C(NCc1ccnc(Cl)c1)n1c2c(c3cc(F)c(Cl)cc31)CN(C/C=C/c1ccc(Cl)cc1)CC2 [Example 304, (E)-7-chloro-2-(3-(4-chlorophenyl)allyl)-N-((2-chloropyridin-4-yl)methyl)-8-fluoro-1,2,3,4-tetrahydro-5H-pyrido[4,3-b]indole-5-carboxamide] | 0.3 | 18.2
